Calls of active or inactive are those of the source.
Key:
[1] = target: Cytochrome P450 2C19 (Homo sapiens, UniProt P33261); assay: Cytochrome panel assay with activity outcomes. Panel member name: p450-cyp2c19 Compounds with AC50 equal or less than 10 uM are considered active; assay type: functional
[2] = inhibitors of intracellular T. cruzi replication, confirmation, NIH3T3 host cells, beta-gal luminescence (AID 2044); assay type: functional, cell-based;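 note: intracellular parasites grown in NIH/3T3 mouse fibroblasts as host cells; luminescent beta-galactosidase reporter signal from transgenic T. cruzi replicating inside host cells; inhibitors lower the luminescence signal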
[3] = cytotoxicity toward NIH3T3 fibroblasts, dose response, counter-screen, cell-based, ATP luminescence, mouse fibroblasts (AID 2010); assay type: functional;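 note: cells exposed to compound for about 90 hours before reading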
[4] = test system: Streptococcus sp. 'group A'; assay: growth inhibition of control SK(-) GAS strain, dose response, counter-screen for streptokinase expression inhibitor project, luminescence, kanamycin, BacTiterGlo, confirmation (AID 1900); assay type: functional, organism-based
[5] = target: T1, Streptokinase A (Streptococcus pyogenes serotype M1, UniProt P10520); assay: S. pyogenes streptokinase expression inhibitors, potency, dose response, plasminogen activation absorbance, OD405 (AID 1914); assay type: functional, Streptococcus pyogenes M1 GAS;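 note: secreted streptokinase activity via plasminogen activation per viability signal from cell pellet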
T1 sequence (P10520 whole entry): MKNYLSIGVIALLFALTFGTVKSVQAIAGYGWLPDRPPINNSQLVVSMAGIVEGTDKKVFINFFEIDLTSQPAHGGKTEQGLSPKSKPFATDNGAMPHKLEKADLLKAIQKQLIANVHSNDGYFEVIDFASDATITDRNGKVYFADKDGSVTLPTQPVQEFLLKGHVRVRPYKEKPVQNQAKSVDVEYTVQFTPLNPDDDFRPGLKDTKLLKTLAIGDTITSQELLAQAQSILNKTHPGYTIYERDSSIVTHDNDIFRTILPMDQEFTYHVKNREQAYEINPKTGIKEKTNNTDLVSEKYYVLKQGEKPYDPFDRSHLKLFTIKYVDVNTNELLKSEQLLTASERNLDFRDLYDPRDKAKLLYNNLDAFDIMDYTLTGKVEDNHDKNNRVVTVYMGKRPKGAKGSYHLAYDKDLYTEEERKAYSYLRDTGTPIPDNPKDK

[6] = test system: Streptococcus; assay: Group A Streptococcus viability loss, dose response, counter-screen for streptokinase expression inhibitor project, luminescence, BacTiterGlo (AID 1915); assay type: functional, organism-based;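 note: potency for reduction of bacterial viability or growth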
[7] = inhibitors of firefly luciferase expression or activity, dose response, H4 neuroglioma cells, luminescence (AID 1990); assay type: functional, cell-based
[8] = Luminescence Cell-Based Dose Response HTS to Identify Inhibitors of 5'UTR Stem-Loop Driven Prion Protein mRNA Translation in H4 Neuroglioblastoma Cells. [Related pubchem assays: 1827 (Project Summary), 1813 (Primary HTS)]; assay type: functional
[9] = inhibitors of SNCA 5'UTR-driven reporter translation, confirmation, H4 neuroglioma cells, luminescence (AID 1988); assay type: functional, cell-based
[10] = target: T2, Corticotropin-releasing factor receptor 2/Corticotropin-releasing factor-binding protein (Homo sapiens, UniProt P24387+Q13324); assay: activators of CRF receptor 2 with binding protein – uHTS hits, confirmation (AID 602473); assay type: functional; settings: read-out: EC50_Mean
T2 sequence (Q13324 whole entry): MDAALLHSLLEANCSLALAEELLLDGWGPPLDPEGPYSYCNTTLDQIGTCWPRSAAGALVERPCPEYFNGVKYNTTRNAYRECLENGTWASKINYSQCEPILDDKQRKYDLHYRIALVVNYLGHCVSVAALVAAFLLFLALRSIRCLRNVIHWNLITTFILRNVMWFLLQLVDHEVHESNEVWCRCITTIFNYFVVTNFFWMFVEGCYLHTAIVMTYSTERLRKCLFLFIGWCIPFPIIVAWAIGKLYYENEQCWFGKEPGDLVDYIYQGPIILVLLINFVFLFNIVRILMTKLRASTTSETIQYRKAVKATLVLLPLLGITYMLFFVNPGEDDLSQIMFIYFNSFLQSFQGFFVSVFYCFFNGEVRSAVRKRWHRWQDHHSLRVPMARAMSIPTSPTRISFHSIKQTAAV
T2 sequence (P24387 whole entry): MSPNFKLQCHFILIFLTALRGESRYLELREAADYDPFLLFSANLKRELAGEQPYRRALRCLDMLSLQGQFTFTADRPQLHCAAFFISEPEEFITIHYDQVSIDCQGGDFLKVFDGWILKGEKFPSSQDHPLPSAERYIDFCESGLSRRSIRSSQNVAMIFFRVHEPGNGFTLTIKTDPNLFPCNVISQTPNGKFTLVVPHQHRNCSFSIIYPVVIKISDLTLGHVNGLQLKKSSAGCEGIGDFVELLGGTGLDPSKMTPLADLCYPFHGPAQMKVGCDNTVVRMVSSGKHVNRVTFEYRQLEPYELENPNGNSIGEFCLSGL

Chain of Cytochrome P450 2C19 (P33261 whole entry): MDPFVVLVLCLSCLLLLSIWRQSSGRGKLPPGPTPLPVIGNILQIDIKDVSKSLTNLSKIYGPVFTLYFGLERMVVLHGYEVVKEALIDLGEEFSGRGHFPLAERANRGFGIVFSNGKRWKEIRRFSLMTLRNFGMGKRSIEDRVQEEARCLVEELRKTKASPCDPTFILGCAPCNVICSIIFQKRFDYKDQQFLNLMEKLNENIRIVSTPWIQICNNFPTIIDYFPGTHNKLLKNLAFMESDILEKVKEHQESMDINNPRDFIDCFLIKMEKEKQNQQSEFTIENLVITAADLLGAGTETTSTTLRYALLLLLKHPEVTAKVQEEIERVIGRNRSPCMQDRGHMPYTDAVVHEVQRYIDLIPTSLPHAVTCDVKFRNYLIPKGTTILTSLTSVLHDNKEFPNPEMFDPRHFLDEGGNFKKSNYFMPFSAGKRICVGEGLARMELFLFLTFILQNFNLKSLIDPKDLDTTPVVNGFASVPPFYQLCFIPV

Compound | EC50 [2] | EC50 [3] | EC50 [4] | EC50 [6] | further results
CN(C)c1ncc2nc(-c3ccccc3)c(=O)n(CCC#N)c2n1 |  |  |  |  | AC50 ([1]; read-out: AC50): 39.8 µM (inconclusive)
O=C1S/C(=C\c2ccccc2)C(=O)N1CC(O)Cn1c2ccccc2c2ccccc21 (stereo not given) | 2.64 µM (active) | 11.5 µM (active) |  |  | 
Cc1cc(OCCOCCN2CCCC2)ccc1C(C)C | 0.816 µM (active) | 4.6 µM (active) |  |  | 
COC(=O)c1ccc(OC)c(CN2CCCN(Cc3ccc(F)cc3)S2(=O)=O)c1 | 1.75 µM (active) | > 30 µM (not active) |  |  | 
NNC(=O)CSc1nc(-c2ccccc2)nc2c1CCCC2 |  |  | > 150 µM (not active) | > 150 µM (not active) | EC50 [5]: > 150 µM (not active)
Cc1cccc(N=Nc2c(C)nn(-c3ccccc3)c2N)c1C |  |  | 11.7 µM (active) | 15.8 µM (active) | EC50 [5]: 22 µM (active)
O=C(Nc1nnc(SCc2ccc(F)cc2)s1)c1ccc2c(c1)C(=O)N(c1ccccc1Cl)C2=O |  |  | 24.3 µM (active) | 101 µM (active) | EC50 [5]: > 150 µM (not active)
COc1cccc(N(C(=O)Cn2nnc(-c3cccs3)n2)C(C(=O)NC(C)C)c2ccc(C)o2)c1 (stereo not given) |  |  |  |  | EC50 [7]: 16.4 µM (active); EC50 [8]: > 120 µM (not active); EC50 [9]: 18.8 µM (active)
CN1CCN(C(=O)C(=O)c2cn(CC(=O)N3CCCC3)c3ccccc23)CC1 |  |  | > 150 µM (not active) | > 150 µM (not active) | EC50 [5]: > 150 µM (not active)
COc1ccc(NC(=O)c2ccc([N+](=O)[O-])s2)c([N+](=O)[O-])c1 | 1.86 µM (active) | > 30 µM (not active) |  |  | 
Cn1nc([N+](=O)[O-])nc1Oc1ccccc1F | 0.551 µM (active) | > 60 µM (not active) |  |  | 
Cc1ccc(S(=O)(=O)N2CCCCC2)cc1NC(=O)Nc1ccc(Cl)cc1Cl | 1.06 µM (active) | > 60 µM (not active) |  |  | 
Cc1cc(C(=O)NCC23CC4CC(CC(C4)C2)C3)c(C)o1 | 2.84 µM (active) | > 60 µM (not active) |  |  | 
Cc1ccc(Nc2nc3nonc3[nH]c2=O)cc1Cl |  |  |  |  | EC50 [5]: 31.1 µM (active)
Cc1ccc(Nc2nc3nonc3nc2O)cc1Cl |  |  | 3.04 µM (active) | 20.6 µM (active) | 
Cc1c(C(=O)N2CCOCC2)c(S(=O)(=O)Nc2cccc(Br)c2)c(C)n1C |  |  |  |  | EC50 [7]: > 120 µM (not active); EC50 [8]: 32.2 µM (active); EC50 [9]: 15 µM (active)
Cc1ccc(NC(=O)CN(C)Cc2nc(O)c3cc(Br)cc(Br)c3n2)cc1 |  |  | 5.34 µM (active) | 12.2 µM (active) | EC50 [5]: > 150 µM (not active)
Cn1c(N)c(C(=O)COC(=O)CCc2c[nH]c3ccccc23)c(=O)n(C)c1=O |  |  | 24.6 µM (active) | 79.6 µM (active) | EC50 [5]: > 150 µM (not active)
CCc1nnc(NC(=O)c2sc3nc4cc(C)ccc4cc3c2N)s1 |  |  | 6.73 µM (active) | 3.95 µM (active) | 
CCOC(=O)C1CCCN(Cc2ccc(OCc3ccccc3)cc2)C1 (stereo not given) | 0.108 µM (active) | > 60 µM (not active) |  |  | 
COc1ccc(-n2ncc3c2CC(C)(C)CC3NC(=O)c2ocnc2C)cc1 (stereo not given) |  |  |  |  | EC50 [7]: > 120 µM (not active); EC50 [9]: > 120 µM (not active)
COc1cc2ccccc2cc1C(=O)Nc1ccc(NC(=O)c2cccs2)cc1 |  |  | 11.5 µM (active) | 29.2 µM (active) | EC50 [5]: > 150 µM (not active)
CNc1nc2nc(O)c3c(c2s1)OC(N)=C(C#N)C3c1cccc(F)c1 (stereo not given) |  |  |  |  | EC50 [10]: > 53 µM (inactive)
CN1CCN(C(CNC(=O)c2ccc(Br)o2)c2ccc(F)cc2)CC1 (stereo not given) | 0.865 µM (active) | > 60 µM (not active) |  |  | 

Compound | EC50 [2] | EC50 [3] | EC50 [4] | EC50 [6] | further results
Cc1ccccc1OCCCc1c(C)n[nH]c1C |  |  | 19.9 µM (active) | > 150 µM (not active) | EC50 [5]: > 150 µM (not active)
Cn1c(=O)n(C)c2cc(NS(=O)(=O)c3ccccc3[N+](=O)[O-])ccc21 |  |  | > 150 µM (not active) | > 150 µM (not active) | EC50 [5]: > 150 µM (not active)
O=C(CSc1nnc(-c2c[nH]c3ccccc23)o1)N(Cc1ccccc1)c1ccc(F)cc1 | 1.58 µM (active) | > 60 µM (not active) |  |  | 
N#C/C(=C/c1ccc(N2CCCCCC2)o1)c1cccc(F)c1 | 2.78 µM (active) | > 60 µM (not active) |  |  | 
CCOC(=O)C1=NN(C(=O)c2ccc(OC)cc2)C(O)(c2ccc(Cl)cc2)C1 (stereo not given) |  |  | 7.85 µM (active) | 15.7 µM (active) | EC50 [5]: > 150 µM (not active)
O=C(Nc1ccncc1)c1cccc(S(=O)(=O)N2CCN(c3ccc(F)cc3)CC2)c1 | 1.14 µM (active) | > 30 µM (not active) |  |  | 
CCOC(=O)C1CCCN(Cc2ccc(O)c(OC)c2)C1 (stereo not given) | 0.183 µM (active) | > 60 µM (not active) |  |  | 
O=C(COC(=O)CSc1cc(Cl)ccc1Cl)NCc1ccc2c(c1)OCO2 |  |  |  |  | EC50 [10]: > 53 µM (inactive)
CSc1nnnc2ccccc12 |  |  |  |  | AC50 [1]: inconclusive
Cc1ccc(C)c(NC(=O)c2cccc(Oc3ccc([N+](=O)[O-])cc3Cl)c2)c1 | 1.45 µM (active) | > 30 µM (not active) |  |  | 
CCN(CC)C(=O)Cn1c(=O)c2ccccc2n2c(=S)sc(-c3cccc(C)c3)c12 |  |  |  |  | EC50 [10]: > 53 µM (inactive)
COc1ccc(Cc2noc(CN3CCN(C4CCc5ccccc5C4)CC3)n2)cc1OC (stereo not given) | 1.23 µM (active) | > 60 µM (not active) |  |  | 
CCN(CC(=O)Nc1sc2c(c1C#N)CCCC2)Cc1nc(O)c2ccccc2n1 |  |  |  |  | EC50 [7]: 22.4 µM (active); EC50 [8]: > 120 µM (not active); EC50 [9]: > 120 µM (not active)
CC(C)=CCC12Oc3cc(O)ccc3C1(O)Oc1cc(O)c([C@H]3C=C(C)CC(c4ccc(O)cc4O)[C@H]3C(=O)c3ccc(O)cc3O)c(O)c1C2=O (stereo not given in full) |  |  | 1.15 µM (active) | 1.64 µM (active) | 
c1ccc(C(c2ccccc2)N2CCN(c3ccc4ccccc4n3)CC2)cc1 |  |  |  |  | EC50 [7]: 16.8 µM (active); EC50 [8]: > 120 µM (not active); EC50 [9]: > 120 µM (not active)
NS(=O)(=O)c1ccc(NC(S)=Nc2ccn(Cc3cccc4ccccc34)n2)cc1 |  |  |  |  | EC50 [7]: 15.6 µM (active); EC50 [8]: > 120 µM (not active); EC50 [9]: > 120 µM (not active)
O=C(Cc1coc2cc3c(cc12)CCC3)OCC(=O)N1CCCC1=O |  |  |  |  | EC50 [7]: > 60 µM (not active); EC50 [8]: > 60 µM (not active); EC50 [9]: 30.1 µM (active)
O=C(C[C@H]1C[C@H](C(=O)N2CCCCC2)[C@@]2(CCc3ccccc3)c3[nH]c4ccc(Cl)cc4c3CCN2C1=O)NCCN1CCOCC1 |  |  |  |  | EC50 [10]: > 53 µM (inactive)
O=C(Cn1nnc(-c2ccccc2)n1)N/N=C/c1cc([N+](=O)[O-])ccc1O |  |  | 0.421 µM (active) | 0.55 µM (active) | 
CCCN(Cc1ccco1)S(=O)(=O)c1ccc(OC)c(OC)c1 |  |  | > 150 µM (not active) | > 150 µM (not active) | EC50 [5]: > 150 µM (not active)
CC(/C=C/C=C/c1ccccc1)=N/NC(=O)c1ccc2c(c1)OCCO2 |  |  | > 150 µM (not active) | > 150 µM (not active) | EC50 [5]: > 150 µM (not active)
O=[N+]([O-])c1cccc(-c2ccc(/C=N/NC(=S)Nc3ccccc3)o2)c1 | 1.99 µM (active) |  |  |  | 
Oc1ccc(/C=N/Nc2ccc3ccccc3c2)c(O)c1 |  |  | 6.27 µM (active) | 31.9 µM (active) | EC50 [5]: > 150 µM (not active)
